± gives the uncertainty stated by the source.
Columns and labels:
Conditions in all cases: 18 h
HEK293T-Rex XBP1-RLuc [1] = assay: EC50 for XBP1-RLuc reporter activation
Protocol: (§1)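 Dose-response of hit compounds in HEK293T-Rex cells stably expressing ERSE-FLuc or XBP1-RLuc reporters, 18 hr treatment, 1536-well; luminescence normalised to 500 nM thapsigargin (100%) and DMSO (0%), fitted to give EC50 (M) and maximal activation; '>' marks EC50 above the top tested dose (~17 µM).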

HEK293T-Rex ERSE-FLuc [2] = assay: EC50 for ERSE-FLuc reporter activation
Protocol: as §1

HEK293T-Rex XBP1-RLuc [3] = assay: maximal XBP1-RLuc activation from dose-response fit, relative to thapsigargin (% of thapsigargin); higher = stronger activation
Protocol: as §1

HEK293T-Rex ERSE-FLuc [4] = assay: maximal ERSE-FLuc activation from dose-response fit, relative to thapsigargin (% of thapsigargin); higher = stronger activation
Protocol: as §1

| Structure (SMILES) | EC50 for XBP1-RLuc reporter activation (HEK293T-Rex XBP1-RLuc [1]) [µM] | EC50 for ERSE-FLuc reporter activation (HEK293T-Rex ERSE-FLuc [2]) [µM] | maximal XBP1-RLuc activation (HEK293T-Rex XBP1-RLuc [3]) | maximal ERSE-FLuc activation (HEK293T-Rex ERSE-FLuc [4]) |
| --- | --- | --- | --- | --- |
| N#C/C(=C/c1ccc(O)c(O)c1)c1nc2ccccc2[nH]1 | > 16.9 | > 16.9 | 20.7 ± 5.2 | 29 ± 5.2 |
| NC(=O)c1c(NC(=O)COc2ccccc2)sc2c1CCC2 | > 13.2 | > 13.2 | 2.55 ± 0.7 | 16.2 ± 1.4 |
| O=C(/C=C/c1ccccc1)Nc1ccc(Br)cn1 | > 13.7 | > 13.7 | 4.36 ± 3.2 | 26.2 ± 3.8 |
| Cc1ccc(O)c(N=CC2=C(O)c3ccccc3C2=O)c1 | > 16.9 | 3.75 | 35.5 ± 4.2 | 74.8 ± 16 |
| O=C(c1ccccc1)c1c(O)ccc2c(C(=O)c3ccccc3)c(O)ccc12 | > 12.5 | > 12.5 | 34.9 ± 1.1 | 32.5 ± 3.7 |
| CCCCNc1ncnc2c1cnn2-c1ccc(Cl)cc1 | > 19.5 | > 19.5 | 2.05 ± 1.1 | 25.4 ± 3 |
| C(=C\c1ccccc1)/C=N/Nc1nc2ccccc2[nH]1 | > 18 | > 18 | 22.2 ± 2 | 25.5 ± 3.7 |
| N#C/C(=C\c1ccc(O)c(O)c1)C(=O)Nc1ccccc1 | > 33.8 | 24.6 | 21.5 ± 0.57 | 52.2 ± 13 |
| CCCCCC(=O)Nc1ccc(C(=O)Nc2ccccc2O)cc1 | > 15.6 | 8.09 | 21.2 ± 1.6 | 112 ± 10 |
| Cc1cc2nc(/C(C#N)=C/c3ccco3)[nH]c2cc1C | > 16.9 | > 16.9 | 2.69 ± 0.74 | 28 ± 8.7 |
| Cc1ccc2c(N)c(C(=O)c3ccc4c(c3)OCO4)sc2n1 | > 16.9 | > 16.9 | 11.4 ± 3.8 | 25.1 ± 2.7 |
| Cc1ccc(O)c(NC(=O)CCc2ccccc2)c1 | > 16.9 | 4.16 | 26.1 ± 0.67 | 107 ± 12 |
| O=C1N/C(=C\c2ccc(O)cc2)C(O)=C1C=NCc1ccccc1 | 2.96 | > 16.9 | 74.2 ± 4.9 | 40.4 ± 7.5 |
| N#Cc1c(NC(=O)c2cnccn2)sc2c1CCCC2 | > 17.9 | > 17.9 | 4.67 ± 1.1 | 18.9 ± 4.8 |
| COc1ccc(/C=C2\SC(=O)NC2=Nc2ccc(C)cc2)c(OC)c1 | > 13 | > 13 | 3.27 ± 1.6 | 18.2 ± 3.2 |
| COc1cccc(/C=N/NC(=O)c2ccc(NC(=O)c3ccc(C)cc3)cc2)c1O | > 16.9 | > 16.9 | 1.01 ± 1.2 | 6.5 ± 1.7 |
| CCc1ccc(NC(=O)/C=C/c2ccco2)cc1 | > 16.8 | > 16.8 | 4.4 ± 8.8 | 19.3 ± 2.3 |
| Oc1ccc(/C=N/Nc2cccc3cccnc23)c(O)c1 | 9.41 | > 16.9 | 53.6 ± 5.7 | 36.6 ± 4.9 |

| Structure (SMILES) | EC50 for XBP1-RLuc reporter activation (HEK293T-Rex XBP1-RLuc [1]) [µM] | EC50 for ERSE-FLuc reporter activation (HEK293T-Rex ERSE-FLuc [2]) [µM] | maximal XBP1-RLuc activation (HEK293T-Rex XBP1-RLuc [3]) | maximal ERSE-FLuc activation (HEK293T-Rex ERSE-FLuc [4]) |
| --- | --- | --- | --- | --- |
| CN(C)c1ccc(/C=C/C(=O)NC(=O)c2ccccc2OC(=O)c2ccccc2)cc1 | > 12.9 | > 12.9 | 11.5 ± 1.4 | 25 ± 1.2 |
| Nc1nc(Nc2ccccc2)cc(-c2ccccc2)n1 | > 17.2 | > 17.2 | 3.36 ± 1.2 | 25.8 ± 9.6 |
| C(=N/Nc1nnc2c(n1)[nH]c1ccccc12)/c1c[nH]c2ccccc12 | > 16.9 | > 16.9 | 26 ± 1.9 | 43.9 ± 1.3 |
| Cc1ccc(O)c(N/C=C/C(=O)c2ccc(F)cc2)c1 | 11.9 | 3.31 | 84.1 ± 19 | 303 ± 13 |
| COc1ccccc1/C=C/C(=O)Nc1ccc(Cl)cn1 | > 15.1 | > 15.1 | 8.83 ± 0.86 | 27.3 ± 3.7 |
| CC(=O)c1cccc(Nc2nc(-c3ccc(O)c(O)c3)cs2)c1 | 13.5 | 9.07 | 62.6 ± 15 | 87.3 ± 28 |
| O=C(Nc1ccc(Cl)cn1)c1ccc(Cl)cc1Cl | > 15.2 | > 15.2 | 4.15 ± 0.98 | 22.5 ± 8.3 |
| COc1cccc(-c2cc(C(=O)Nc3cc(C)ccc3O)no2)c1 | > 16.9 | > 16.9 | 19.1 ± 3.5 | 46.2 ± 7.9 |
| COc1ccc2[nH]c3c(N4CCCCC4)ncnc3c2c1 | > 17.1 | > 17.1 | 9.73 ± 1.4 | 27.4 ± 2.9 |
| O=C(CCCN1CCC2(CC1)C(=O)NCN2c1ccccc1)c1ccc(F)cc1 | 3.23 | 7.34 | 186 ± 12 | 157 ± 16 |
| COc1ccc(/C=C/c2nc3cc([N+](=O)[O-])ccc3s2)cc1O | > 18.5 | > 18.5 | 8.74 ± 5.7 | 39.5 ± 2.4 |
| COc1cccc(-c2nc3ccc(N)cc3[nH]2)c1 | > 16.9 | > 16.9 | 14.7 ± 3.4 | 20.8 ± 3.1 |
| N#Cc1ccc(-c2cccs2)nc1SCc1ccccn1 | > 16.4 | > 16.4 | 5.22 ± 2.9 | 28.6 ± 1.8 |
| C=CCn1c(N2CCC(C(=O)NCCc3ccc(O)c(O)c3)CC2)nc2ccccc21 | 7.94 | 8.27 | 97.8 ± 31 | 150 ± 16 |
| COC(=O)c1ccc2c(COC(C)=O)c(OC(C)=O)ccc2c1COC(C)=O | > 16.9 | 14.7 | 19.2 ± 4.8 | 70.9 ± 16 |
| COc1ccc(/C(C)=N/OC/C(O)=C(\C#N)c2nc3ccccc3[nH]2)cc1OC | > 17.2 | > 17.2 | 3.33 ± 0.88 | 5.39 ± 2.3 |
| N#Cc1c(NC(=O)c2cccc(F)c2)sc2c1CCC2 | > 16.5 | > 16.5 | 2.22 ± 1.6 | 19.5 ± 3.1 |
| O=C1NC(=Nc2ccccc2)S/C1=C/c1ccc(O)c(O)c1 | > 15.4 | 6.2 | 38.5 ± 6.1 | 83.8 ± 12 |

— the supplement of paper PMC4954754
